Experimental data: article PMC3031978 (Bioorganic & medicinal chemistry letters, 2010)
“Also recorded” adds a separate entry of the source.

Tests used:
KOR [1] = target: T1, KOR (Homo sapiens, UniProt P41145); assay type: binding
KOR [2] = target: T1, KOR; assay type: binding; remark: listed apart in the source
KOR [3] = target: T1, KOR; assay type: biochemical
[4] = cited from earlier work

T1 sequence (P41145 whole entry): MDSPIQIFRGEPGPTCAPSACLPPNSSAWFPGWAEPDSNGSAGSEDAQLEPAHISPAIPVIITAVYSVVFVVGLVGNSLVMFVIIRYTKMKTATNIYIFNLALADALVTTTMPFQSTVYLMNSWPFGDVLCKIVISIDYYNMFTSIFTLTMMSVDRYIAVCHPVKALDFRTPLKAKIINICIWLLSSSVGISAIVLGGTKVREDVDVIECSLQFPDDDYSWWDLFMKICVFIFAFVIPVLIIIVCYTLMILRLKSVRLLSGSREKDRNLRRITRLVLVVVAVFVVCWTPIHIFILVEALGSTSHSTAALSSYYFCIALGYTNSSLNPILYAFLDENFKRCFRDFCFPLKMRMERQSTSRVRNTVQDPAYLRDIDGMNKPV

## COC(=O)[C@@H]1C[C@H](OC(=O)[C@H](C)N)C(=O)[C@H]2[C@@]1(C)CC[C@H]1C(=O)O[C@H](c3ccoc3)C[C@]21C [Analogue 10]
KOR [1]
  displacement of [3H]diprenorphine at KOR (in words): did not displace [^3H]diprenorphine; also recorded: did not displace KOR antagonist binding
KOR [2]
  DOR/KOR: >2.64
  MOR/KOR: >2.64
  affinity at KOR (in words): μM affinity; also recorded: in a μM range

## COC(=O)[C@@H]1C[C@H](OC(=O)[C@@H](N)C(C)C)C(=O)[C@H]2[C@@]1(C)CC[C@H]1C(=O)O[C@H](c3ccoc3)C[C@]21C [Analogue 12, 2-(2′-(S)-amino-3-methylbutanoate) salvinorin B]
KOR [3]
  agonist activity at KOR (in words): full agonist
KOR [2]
  DOR/KOR: >238
  MOR/KOR: >238

## NCC(=O)O [Gly]
[4]
  stability (in words): unstable

## CNCC(=O)O [Sar]
[4]
  stability (in words): unstable
